The results in this text go back to ChEMBL document CHEMBL1201862, “PubChem BioAssay data set” (2004).

The structures appear in SMILES notation.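 These data come from cells grown in 96-well plates and exposed to compound for 48 hours at five concentrations. The concentration for 50% growth inhibition is given as GI50.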 Activity calls are given as the source filed them. Rule as the data show it: active = GI50 up to about 1.1 µM and inactive = higher.

Some test systems named below: 786-0; A549; CAKI-1; CCRF-CEM; HL-60; IGROV-1; KM12; MCF7; MDA-MB-231; NCI-H226; NCI-H460; RPMI-8226; SF-268; SF-539; SK-MEL-5; SNB-19; SR; SW-620; T47D; TK-10.
Common to all, as to experiment: NCI tumour cell line growth inhibition, 48 h

In the case of `CN(c1ccccc1)S(=O)(=O)c1ccccc1[N+](=O)[O-]`, the GI50 with 786-0 is > 100 µM (inactive); in the assay on A549 it was > 100 µM (inactive); with CAKI-1 it was > 100 µM (inactive); in the assay on CCRF-CEM, 44.3 µM (inactive); with HL-60 it was > 100 µM (inactive); in the assay on IGROV-1 it was > 100 µM (inactive). Also, the GI50 in the assay on KM12 was > 100 µM (inactive); with MCF7 it was > 100 µM (inactive); with MDA-MB-231, 67.9 µM (inactive); with NCI-H226, > 100 µM (inactive); with NCI-H460, 77.1 µM (inactive); with RPMI-8226, 37.8 µM (inactive). Also, the GI50 was > 100 µM (inactive) in the assay with SF-268; > 100 µM (inactive) in the assay with SF-539; > 10 µM (inactive) with SK-MEL-5; > 100 µM (inactive) in the assay with SNB-19; 81.3 µM (inactive) in the assay with SR; > 100 µM (inactive) in the assay on SW-620. The GI50 in the assay with T47D is 62.5 µM (inactive); in the assay with TK-10 it was > 100 µM (inactive).

For the compound `O=CNc1ccc2c(c1)C(=O)c1ccccc1-2`, the GI50 with 786-0 is 42.9 µM (inactive); in the assay on A549 it was > 100 µM (inactive); in the assay on CAKI-1, > 100 µM (inactive); in the assay with CCRF-CEM it was 41.2 µM (inactive); with HL-60, 49.1 µM (inactive); in the assay with IGROV-1 it was 44.1 µM (inactive). For the same compound, the GI50 with KM12 is 68.2 µM (inactive); in the assay with MCF7 it was 20.8 µM (inactive); with MDA-MB-231 it was > 100 µM (inactive); in the assay on NCI-H226 it was > 100 µM (inactive); with NCI-H460, 46 µM (inactive); in the assay with RPMI-8226, 61.4 µM (inactive). In addition, the GI50 in the assay on SF-268 was 47.3 µM (inactive); with SF-539, 75.5 µM (inactive); in the assay on SK-MEL-5 it was > 100 µM (inactive); with SNB-19 it was > 100 µM (inactive); with SR it was 37.2 µM (inactive); in the assay on SW-620, 49.3 µM (inactive). In addition, the values for the GI50 in the assay on T47D and in the assay on TK-10 were 76.9 µM (inactive) and > 100 µM (inactive), respectively.

For the compound `COc1ccc(N2C(=O)C3c4[nH]c5ccc(OC)cc5c4C4CCC(c5ccccc5)CC4C3C2=O)cc1` (stereo not given), the GI50 is 2.12 µM (inactive) with 786-0; 12.8 µM (inactive) with A549; 14.6 µM (inactive) with CAKI-1; 2.27 µM (inactive) in the assay with CCRF-CEM; 11.5 µM (inactive) in the assay on HL-60; 16.1 µM (inactive) in the assay with IGROV-1. The GI50 in the assay on KM12 is 14.2 µM (inactive); in the assay with MCF7 it was 19.6 µM (inactive); with MDA-MB-231 it was 7.05 µM (inactive); in the assay on NCI-H226, 28.7 µM (inactive); in the assay on NCI-H460, 4.93 µM (inactive); in the assay with RPMI-8226, 6.25 µM (inactive). The GI50 with SF-268 was 8.63 µM (inactive); in the assay with SF-539, 2.09 µM (inactive); in the assay on SK-MEL-5, 22.4 µM (inactive); in the assay with SNB-19 it was 11.9 µM (inactive); in the assay on SR, 0.451 µM (active); in the assay on SW-620 it was 3.82 µM (inactive). Further, the GI50 with T47D was 20.1 µM (inactive); in the assay on TK-10, 21.8 µM (inactive).

As for `COCC(=O)OC1CCn2c1nc1c2C(=O)C(C)=C(NC(C)=O)C1=O` (stereo not given), the GI50 is 6.73 µM (inactive) with 786-0; 21.6 µM (inactive) in the assay with A549; 16.2 µM (inactive) in the assay with CAKI-1; 0.857 µM (active) with CCRF-CEM; 1.43 µM (inactive) in the assay on HL-60; 14.5 µM (inactive) in the assay on IGROV-1. The GI50 is 15.7 µM (inactive) in the assay on KM12; 1.84 µM (inactive) in the assay with MCF7; 1.24 µM (inactive) in the assay on MDA-MB-231; 11.1 µM (inactive) in the assay on NCI-H226; 17.5 µM (inactive) with NCI-H460; 2.33 µM (inactive) in the assay on RPMI-8226. Also, the GI50 in the assay with SF-268 was 6.73 µM (inactive); in the assay with SF-539, 3.94 µM (inactive); with SK-MEL-5 it was 13.5 µM (inactive); with SNB-19, 19.6 µM (inactive); with SR, 1.94 µM (inactive); in the assay with SW-620, 7.4 µM (inactive). The results for the GI50 in the assay with T47D and in the assay with TK-10 were 0.787 µM (active) and 18.2 µM (inactive), respectively.

`Nc1onc2c1Cc1c(noc1N)-c1ccccc1-2`: the GI50 in the assay on 786-0 was 79.3 µM (inactive); in the assay with A549, 71 µM (inactive); in the assay with CAKI-1, 44.4 µM (inactive); in the assay on CCRF-CEM, 42.7 µM (inactive); in the assay with HL-60, 19.8 µM (inactive); in the assay on IGROV-1 it was 54.5 µM (inactive). Also, the GI50 in the assay with KM12 is 49.8 µM (inactive); in the assay with MCF7, 49.7 µM (inactive); in the assay with MDA-MB-231, 35.1 µM (inactive); with NCI-H226 it was > 100 µM (inactive); in the assay on NCI-H460 it was > 100 µM (inactive); with RPMI-8226, 53.7 µM (inactive). For the same compound, the GI50 in the assay with SF-268 is 54 µM (inactive); in the assay on SF-539, 96.8 µM (inactive); with SK-MEL-5, 36.6 µM (inactive); in the assay with SNB-19 it was > 100 µM (inactive); in the assay with SR it was 35.2 µM (inactive); with SW-620, 57 µM (inactive). Besides, the GI50 in the assay on T47D was 27 µM (inactive); with TK-10 it was > 100 µM (inactive).

As for `CCOC(=O)c1c(Br)c(-c2ccc(Br)cc2)c(Br)n1C`, the GI50 with 786-0 is 20.5 µM (inactive); in the assay with A549 it was 23.6 µM (inactive); in the assay on CAKI-1 it was 17.1 µM (inactive); in the assay on CCRF-CEM, 14.7 µM (inactive); in the assay with HL-60 it was 6.59 µM (inactive); in the assay with IGROV-1, 12.2 µM (inactive). Besides, the GI50 with KM12 is 10.2 µM (inactive); with MCF7 it was 22.8 µM (inactive); in the assay with MDA-MB-231 it was 13.6 µM (inactive); in the assay with NCI-H226 it was 15.5 µM (inactive); with NCI-H460 it was 28.4 µM (inactive); in the assay on RPMI-8226, 17.9 µM (inactive). Moreover, the GI50 is 19.7 µM (inactive) in the assay with SF-268; 21.3 µM (inactive) in the assay with SF-539; 17.5 µM (inactive) with SK-MEL-5; 28.3 µM (inactive) with SNB-19; 3.22 µM (inactive) with SR; 23.2 µM (inactive) in the assay with SW-620. Further, the results for the GI50 in the assay on T47D and with TK-10 were 10.5 µM (inactive) and 39 µM (inactive), respectively.

For `CCOC(=O)CCc1cn2cc(Br)nc(OC)c2n1`, the GI50 in the assay on 786-0 was > 100 µM (inactive); in the assay on A549, 62.4 µM (inactive); in the assay on CAKI-1 it was > 100 µM (inactive); in the assay with CCRF-CEM, 10.1 µM (inactive); in the assay with HL-60 it was > 100 µM (inactive); in the assay on IGROV-1, 65.6 µM (inactive). Moreover, the GI50 in the assay on KM12 was 5.41 µM (inactive); in the assay with MCF7, 16.2 µM (inactive); in the assay with MDA-MB-231, 39.2 µM (inactive); in the assay with NCI-H226 it was > 100 µM (inactive); with NCI-H460, > 100 µM (inactive); in the assay on RPMI-8226, 44 µM (inactive). For the same compound, the GI50 was > 100 µM (inactive) in the assay on SF-268; 50.5 µM (inactive) in the assay on SF-539; 7.85 µM (inactive) in the assay with SK-MEL-5; > 100 µM (inactive) with SNB-19; 72.6 µM (inactive) in the assay with SR; 16.2 µM (inactive) in the assay on SW-620. Besides, the GI50 is 46.3 µM (inactive) with T47D and > 100 µM (inactive) with TK-10.

Regarding `CC(C)C(OC(=O)c1cc(NC(=S)c2ccccc2)ccc1Cl)C(C)C`, the GI50 is 16.7 µM (inactive) in the assay with 786-0; 21 µM (inactive) in the assay on A549; 17.2 µM (inactive) in the assay with CAKI-1; 14.9 µM (inactive) in the assay on CCRF-CEM; 10.6 µM (inactive) with HL-60; 33 µM (inactive) with IGROV-1. In addition, the GI50 in the assay on KM12 is 5.69 µM (inactive); in the assay with MCF7 it was 17.3 µM (inactive); with MDA-MB-231, 20.2 µM (inactive); with NCI-H226, 16 µM (inactive); in the assay with NCI-H460, 14.1 µM (inactive); with RPMI-8226, 13.3 µM (inactive). The GI50 in the assay on SF-268 was 23 µM (inactive); in the assay on SF-539, 24.4 µM (inactive); in the assay on SK-MEL-5, 14.2 µM (inactive); with SNB-19 it was 38.4 µM (inactive); with SR, 11.9 µM (inactive); in the assay on SW-620, 21.8 µM (inactive). For the same compound, the values for the GI50 with T47D and in the assay on TK-10 were 7.85 µM (inactive) and 21.5 µM (inactive), respectively.

Turning to `COc1cc(C2c3[nH]c4ccc(F)cc4c3C[C@H]3COC(=O)N23)cc(OC)c1O` (stereo not given in full), the GI50 in the assay with 786-0 is 11.6 µM (inactive); in the assay with A549, 6.65 µM (inactive); with CAKI-1, 11 µM (inactive); with CCRF-CEM, 6.89 µM (inactive); in the assay with HL-60 it was 7.71 µM (inactive); with IGROV-1, 13.2 µM (inactive). The GI50 was 12.3 µM (inactive) in the assay with KM12; 3.33 µM (inactive) with MCF7; 22.1 µM (inactive) in the assay on MDA-MB-231; 10.4 µM (inactive) with NCI-H226; 4.36 µM (inactive) with NCI-H460; 96.6 µM (inactive) in the assay with RPMI-8226. Also, the GI50 is 11.5 µM (inactive) with SF-268; 2.93 µM (inactive) with SF-539; 10.7 µM (inactive) with SK-MEL-5; 21.3 µM (inactive) in the assay with SNB-19; 0.47 µM (active) in the assay with SR; 9.46 µM (inactive) in the assay on SW-620. For the same compound, the GI50 is 32.5 µM (inactive) with T47D and > 10 µM (inactive) with TK-10.

With `CN(C)/C=C(\C(=O)c1ccccc1)n1nc(-c2ccccc2)cc1-c1ccccc1`, the GI50 with 786-0, with A549, in the assay with CAKI-1, in the assay on CCRF-CEM, in the assay on HL-60 and in the assay on IGROV-1 was > 10 µM (inactive) in each case. Further, the GI50 with KM12, with MCF7, in the assay on MDA-MB-231, in the assay on NCI-H226, with NCI-H460 and with RPMI-8226 was > 10 µM (inactive) throughout. For the same compound, the GI50 with SF-268, in the assay with SF-539, in the assay on SK-MEL-5, with SNB-19, with SR and in the assay with SW-620 was > 10 µM (inactive) in each case. Moreover, the GI50 in the assay on T47D and in the assay on TK-10 was > 10 µM (inactive) each time.
